# Source: publication PMC6522510 (Nature Communications, 2019)
# Where two headings read alike, the source gives them in different places.
# How the values were obtained:
# Meg-01 = experiment: cells
# CHRF288-11 [1] = assay type: cell-based; conditions: Homo sapiens, 72 h
# [2] = test system: AMKL patient-derived xenograft; experiment: In vivo efficacy, survival; set-up: species or system NSG-SGM3 mice; conditions: AMKL PDX, 60 mg kg−1 twice daily for 5 days up to 4 weeks, oral gavage
# CMS [3] = assay type: cell-based; conditions: Homo sapiens, 72 h, read-out: IC50 CMS
# M07e [4] = experiment: cells
# [5] = test system: CHRF288-11-luciferase/YFP+ xenograft; experiment: In vivo efficacy, survival; set-up: species or system NSG mice; conditions: CHRF288-11 xenograft, 60 mg kg−1 twice daily for 5 days up to 4 weeks, oral gavage
# CMY = experiment: cells
# WSU = experiment: cells; conditions: Homo sapiens, 72 h, read-out: IC50 (WSU)
# [6] = Pharmacokinetics of ruxolitinib, single oral dose, plasma LC-MS/MS; assay type: in vivo, mice; conditions: mouse, 60 mg kg−1 oral gavage
# Method: Data are mean ± standard error (SE) (N = 5 per gender). Concentration-time data were analyzed by non-compartmental analysis and pharmacokinetic parameters were calculated in WinNonLin. c–e, top Kaplan–Meier analysis of animal survival in c CHRF288–11-luciferase/YFP+ xenograft, d CBFA2T3-GLIS2/JAK2V617F-induced AMKL quaternary transplants, and e AMKL patient-derived xenograft.
# Animal studies were performed under protocols approved by the Institutional Animal Care and Use Committee at OSU. […] Serial blood collection was performed from 15 min up to 240 min after dose administration.
# M-MOK = experiment: cells
# CMK [7] = experiment: cells
# MKPL = experiment: cells
# [8] = test system: CBFA2T3-GLIS2/JAK2V617F tertiary transplant leukemic blasts; assay type: cell-based, mouse
# CMS [9] = experiment: Secondary dose-response HTS, Cell Titer Glo; assay type: cell-based, human; conditions: secondary HTS, 72 h, average of triplicate; read-out: EC50 CMS
# CHRF288-11 [10] = experiment: Primary HTS, single concentration, Cell Titer Glo; assay type: cell-based, human; conditions: approximately 10 µM, 72 h, relative to positive control
# CHRF288-11 [11] = experiment: Secondary dose-response HTS, Cell Titer Glo; assay type: cell-based, human; conditions: secondary HTS, 72 h, average of triplicate; read-out: EC50 CHRF288-11
# M07e [12] = experiment: Primary HTS, single concentration, Cell Titer Glo; assay type: cell-based, human; conditions: approximately 10 µM, 72 h, relative to positive control
# ML-2 = experiment: Primary HTS, single concentration, Cell Titer Glo; assay type: cell-based, human; conditions: approximately 10 µM, 72 h, relative to positive control
# U937 [13] = experiment: Primary HTS, single concentration, Cell Titer Glo; assay type: cell-based, human; conditions: approximately 10 µM, 72 h, relative to positive control
# CMK [14] = experiment: Secondary dose-response HTS, Cell Titer Glo; assay type: cell-based, human; conditions: secondary HTS, 72 h, average of triplicate; read-out: EC50 CMK
# CMK [15] = experiment: Primary HTS, single concentration, Cell Titer Glo; assay type: cell-based, human; conditions: approximately 10 µM, 72 h, relative to positive control
# MV4-11 = experiment: Primary HTS, single concentration, Cell Titer Glo; assay type: cell-based, human; conditions: approximately 10 µM, 72 h, relative to positive control
# U937 [16] = experiment: Secondary dose-response HTS, Cell Titer Glo; assay type: cell-based, human; conditions: secondary HTS, 72 h, average of triplicate; read-out: EC50 U937
# CMS [17] = experiment: Primary HTS, single concentration, Cell Titer Glo; assay type: cell-based, human; conditions: approximately 10 µM, 72 h, relative to positive control
# MOLM-13 = experiment: Primary HTS, single concentration, Cell Titer Glo; assay type: cell-based, human; conditions: approximately 10 µM, 72 h, relative to positive control
smiles,measurement,setting,value
"N#CC[C@H](C1CCCC1)n1cc(-c2ncnc3[nH]ccc23)cn1 [Ruxolitinib, ruxolitinib]",IC50,Meg-01,> 10000 nM
same,IC50,"CHRF288-11 [1]; read-out: IC50, ruxolitinib + BMP2, CHRF288-11, 72 h, with 100 ng mL−1 BMP2",103 nM
same,IC50,"CHRF288-11 [1]; read-out: IC50, ruxolitinib + EPO, CHRF288-11, 72 h, with 100 ng mL−1 EPO",142 nM
same,IC50,"CHRF288-11 [1]; read-out: IC50, ruxolitinib + TPO, CHRF288-11, 72 h, with 100 ng mL−1 TPO",480 nM
same,IC50,"CHRF288-11 [1]; read-out: IC50, ruxolitinib alone (Fig. 6g), CHRF288-11, 72 h, without cytokine",119 nM
same,IC50,"CHRF288-11 [1]; read-out: IC50 CHRF288-11, 72 h, Cell Titer Glo",143 nM
same,Median survival,[2],43 days
same,IC50,CMS [3],64 nM
same,IC50,M07e [4],45 nM
same,Median survival,[5],31 days
same,IC50,CMY,49 nM
same,IC50,WSU,8.7 nM
same,AUC(0-t),"[6]; BoyJ, Female",16.8 ± 10.8 µM·h
same,Cmax,"[6]; BoyJ, Female",18.1 ± 10.6 µM
same,Tmax,"[6]; BoyJ, Female",15 min
same,half-life,"[6]; BoyJ, Female",122 ± 66 min
same,AUC(0-t),"[6]; BoyJ, Male",17.9 ± 6.5 µM·h
same,Cmax,"[6]; BoyJ, Male",28.6 ± 10.6 µM
same,Tmax,"[6]; BoyJ, Male",15 min
same,half-life,"[6]; BoyJ, Male",158 ± 104 min
same,AUC(0-t),"[6]; NSG, Female",4.8 ± 0.6 µM·h
same,Cmax,"[6]; NSG, Female",6.9 ± 1.7 µM
same,Tmax,"[6]; NSG, Female",15 min
same,half-life,"[6]; NSG, Female",75.6 ± 28.8 min
same,AUC(0-t),"[6]; NSG, Male",4.1 ± 0.6 µM·h
same,Cmax,"[6]; NSG, Male",5.5 ± 1.7 µM
same,Tmax,"[6]; NSG, Male",15 min
same,half-life,"[6]; NSG, Male",79.2 ± 44.4 min
same,IC50,M-MOK,6.4 nM
same,IC50,CMK [7],142 nM
same,IC50,MKPL,6300 nM
same,sensitivity of primary murine blasts,[8],sensitive
CC(/C=C/C(=O)NO)=C\[C@@H](C)C(=O)c1ccc(N(C)C)cc1 [Trichostatin A],EC50,CMS [9],40 nM
same,CHRF288-11 %inh,CHRF288-11 [10],190%
same,EC50,CHRF288-11 [11],40 nM
same,M07e %inh,M07e [12],147%
same,ML-2 %inh,ML-2,60%
same,U937 %inh,U937 [13],83%
same,EC50,CMK [14],50 nM
same,CMK %inh,CMK [15],137%
same,MV4-11 %inh,MV4-11,81%
same,EC50,U937 [16],40 nM
same,CMS %inh,CMS [17],111%
same,MOLM-13 %inh,MOLM-13,98%
